Data on 29 compounds can be found in patent US20250034169A1, “NOVEL PYRIMIDOPYRIDINE COMPOUND, PHARMACEUTICAL COMPOSITION THEREOF, AND USE THEREOF” (SUNSHINE LAKE PHARMA CO., LTD., priority 2021, published 2025).

Series [1] addresses KRAS G12D-GTP & cRAF (Homo sapiens (Human), UniProt P01116, G12D). Briefly: KRAS G12D/cRAF binding experiment (HTRF). The settings on record: competitive binding.
Series [2] concerns the target KRAS G12D-GTP & SOS1 (Homo sapiens (Human), UniProt P01116, G12D). Briefly: KRAS G12D/SOS1 binding experiment (HTRF). The settings on record: competitive binding. Background: In TR-FRET formats the signal depends on donor and acceptor labels being close together.
In series [3] the test system is intracellular pERK. Briefly: Inhibitory effect on intracellular pERK, In-Cell Western, AGS cells. Type of series: cell-based. Conditions: Homo sapiens, read-out: Inhibitory effect on intracellular pERK, IC50.
A short description of series [4]: Stability in human liver microsomes. The series is classed as in vitro ADME. The settings on record: human, pH 7.4; for CLHep / ER: 1 μM; for half-life at 1 μM / microsomal CLint at 1 μM: microsomes. As to the method: (§1) Objective: To evaluate the stability of the compounds of the present invention in human and mouse liver microsomes by LC-MS/MS.
(§2) The ratio of the sample peak area to the internal standard peak area was obtained by LC/MS/MS, and the content of the compounds at 0 min was regarded as 100%, and the relative content of the compounds at each time point was calculated. The half-life of the compound was calculated by plotting the “relative content of the compound” against the “incubation time”, and the intrinsic clearance was calculated, in which the half-life and intrinsic clearance of the compound in human and mouse liver microsomes were determined in Table 3 and Table 4, respectively.

The nature of series [5]: Stability in mouse liver microsomes. Conditions: mouse, pH 7.4; for CLHep / CLin vivo / ER: 1 μM; for half-life at 1 μM / microsomal CLint at 1 μM: microsomes. The series is classed as in vitro ADME. How it is done: as §1, §2
Setting [6] is: AGS cells, 3 h incubation, In-Cell Western.

Read-outs that look alike come from different tables or passages of the source.

KRAS G12D-GTP & cRAF, sequence (P01116-2 other isoform, or with tags, fused parts or gaps G12D): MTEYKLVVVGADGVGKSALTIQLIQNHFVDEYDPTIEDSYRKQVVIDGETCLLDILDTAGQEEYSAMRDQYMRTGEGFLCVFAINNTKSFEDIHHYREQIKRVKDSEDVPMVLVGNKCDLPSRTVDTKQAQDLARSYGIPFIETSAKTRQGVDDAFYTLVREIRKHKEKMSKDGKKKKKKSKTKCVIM
KRAS G12D-GTP & SOS1, sequence (P01116-2 other isoform, or with tags, fused parts or gaps G12D): as above

In the case of `C#Cc1c(F)ccc2cc(O)cc(-c3nc(C#CCCC(C)C)c4c(N5CC6CCC(C5)N6)nc(OC[C@@]56CCCN5C[C@H](F)C6)nc4c3F)c12` [Compound 30], the IC50 (commonly the point on the concentration scale where inhibition reaches its midpoint) turned out to be 8.8 nM in series [1], 13.4 nM in series [2] and 0.8 nM in series [3] (setting [6]).
For `C#Cc1c(F)ccc2cc(O)cc(-c3nc(OCCC(F)(F)F)c4c(N5CC6CCC(C5)N6)nc(OC[C@@]56CCCN5C[C@H](F)C6)nc4c3F)c12` [Compound 9] the same measures were 8.8 nM, 12.6 nM and 0.6 nM.
Regarding `C#Cc1c(F)ccc2cc(O)cc(-c3nc(C#C)c4c(N5CC6CCC(C5)N6)nc(OC[C@@H]5CCCN5C)nc4c3F)c12` [Compound 51], the IC50 in series [1] amounted to 11.1 nM; in series [2] it was 20.8 nM; in series [3] (setting [6]) it was 1.2 nM.
On to `C#Cc1c(F)ccc2cc(O)cc(-c3nc(C(=O)OCC)c4c(N5CC6CCC(C5)N6)nc(OC[C@@]56CCCN5C[C@H](F)C6)nc4c3F)c12` [Compound 13], for which the figures for the IC50 in series [1] and in series [2] were 5.1 nM and 11.3 nM, respectively.
In the case of `[2H]C([2H])([2H])c1nc(-c2cc(O)cc3ccc(F)c(C#C)c23)c(F)c2nc(OC[C@@]34CCCN3C[C@H](F)C4)nc(N3CC4CCC(C3)N4)c12` [Compound 11], the IC50 in series [1] stood at 9.2 nM; in series [2] it was 19.8 nM.
Consider `C#Cc1c(F)ccc2cc(O)cc(-c3nc(C#CCC)c4c(N5CC6CCC(C5)N6)nc(OC[C@@]56CCCN5C[C@H](F)C6)nc4c3F)c12` [Compound 24], for which the IC50 in series [1] is 13.6 nM; in series [2] it was 15.1 nM; in series [3] (AGS, 3 h) it was 0.2 nM.
For `C#Cc1nc(-c2cc(O)cc3ccc(F)c(CC)c23)c(F)c2nc(OC[C@@]34CCCN3C[C@H](F)C4)nc(N3CC4CCC(C3)N4)c12` [Compound 65], in that order: 9.9 nM, 18.5 nM and 0.4 nM.
Consider `C#Cc1c(F)ccc2cc(O)cc(-c3nc(C#C)c4c(N5CC6CCC(C5)N6)nc(OCCC(F)(F)F)nc4c3F)c12` [Compound 55], for which the IC50 turned out to be 9.8 nM in series [1] and 14.8 nM in series [2].
In the case of `C#Cc1c(F)ccc2cc(O)cc(-c3nc(COC)c4c(N5CC6CCC(C5)N6)nc(OC[C@@]56CCCN5C[C@H](F)C6)nc4c3F)c12` [Compound 26], the IC50 in series [3] (setting [6]) was 0.4 nM.
As to `C#Cc1c(F)ccc2cc(O)cc(-c3nc(C#C)c4c(N5CC6CCC(C5)N6)nc(OCC5CCCC5)nc4c3F)c12` [Compound 56], the IC50 is 18.5 nM in series [1] and 15.7 nM in series [2].
Take `C#Cc1c(F)ccc2cc(O)cc(-c3nc(C#CCCCC)c4c(N5CC6CCC(C5)N6)nc(OC[C@@]56CCCN5C[C@H](F)C6)nc4c3F)c12` [Compound 39]: the IC50 in series [3] (setting [6]) worked out at 0.5 nM. Also, in series [4], the CLHep came to 19.0 mL/min/kg; the ER was 0.48; the half-life (as a rule, the time in which the quantity being followed falls by half) at 1 μM worked out at 1.52 h; the microsomal CLint (in general, the capacity of the preparation to metabolise the compound, expressed as a volume cleared per time) at 1 μM worked out at 15.2 µL/min/mg. In series [5], this compound came in with a CLHep of 53.4 mL/min/kg, a CLin vivo of 33.5 mL/min/kg, an ER of 0.37 and a half-life at 1 μM of 1.7 h. The compound also had a microsomal CLint at 1 μM in series [5] of 13.5 µL/min/mg.
Consider `C#Cc1c(F)ccc2cc(O)cc(-c3nc(C#C)c4c(N5CC6CCC(C5)N6)nc(OCC5(CN6CCOCC6)CC5)nc4c3F)c12` [Compound 53], for which the IC50 in series [1] amounted to 4.3 nM; in series [2] it was 14.6 nM; in series [3] (setting [6]), 0.4 nM.
For the compound `C#Cc1c(F)ccc2cc(O)cc(-c3nc(COC)c4c(N5CC6CCC(C5)N6)nc(OC[C@@]56CCCN5C[C@H](F)C6)nc4c3F)c12` [Compound 12], the IC50 in series [1] worked out at 9.7 nM; in series [2] it was 10.3 nM.
Turning to `C#Cc1c(F)ccc2cc(O)cc(-c3nc(C#CC4CCCC4)c4c(N5CC6CCC(C5)N6)nc(OC[C@@]56CCCN5C[C@H](F)C6)nc4c3F)c12` [Compound 28], the IC50 stood at 11.1 nM in series [1] and 11.5 nM in series [2].
On to `C#Cc1nc(-c2cc(O)cc3cccc(F)c23)c(F)c2nc(OC[C@@]34CCCN3C[C@H](F)C4)nc(N3CC4CCC(C3)N4)c12` [Compound 68], for which the IC50 in series [1] is 6.5 nM; in series [2] it was 16.6 nM; in series [3] (setting [6]), 0.8 nM.
For the compound `C#Cc1c(F)ccc2cc(O)cc(-c3nc(C#C)c4c(N5CC6CCC(C5)N6)nc(OCC56CCCN5CCC6)nc4c3F)c12` [Compound 54], in series [4], the CLHep was 5.6 mL/min/kg, the ER is on record as 0.21, the half-life at 1 μM is 5.2 h and the microsomal CLint at 1 μM is 4.4 µL/min/mg. In series [5], this compound registered a CLHep of 31.9 mL/min/kg, a CLin vivo of 23.5 mL/min/kg, an ER of 0.26 and a half-life at 1 μM of 2.86 h. For the same compound, in series [5], the microsomal CLint at 1 μM is 8.1 µL/min/mg.
As to `C#Cc1nc(-c2cc(O)cc3ccccc23)c(F)c2nc(OC[C@@]34CCCN3C[C@H](F)C4)nc(N3CC4CCC(C3)N4)c12` [Compound 66], the IC50 was found to be 5.9 nM in series [1] and 11.7 nM in series [2].
As to `C#Cc1c(F)ccc2cc(O)cc(-c3nc(C#C)c4c(N5CC6CCC(C5)N6)nc(OC[C@H]5CCCN5C)nc4c3F)c12` [Compound 50], the IC50 in series [1] is 19.1 nM; in series [2], 36.2 nM.
Consider `C#CCOc1nc(-c2cc(O)cc3ccc(F)c(C#C)c23)c(F)c2nc(OC[C@@]34CCCN3C[C@H](F)C4)nc(N3CC4CCC(C3)N4)c12` [Compound 91], for which, in series [3] (setting [6]), the IC50 came out at 0.3 nM.
Consider `C#Cc1c(F)ccc2cc(O)cc(-c3nc(C#C)c4c(N5C[C@@H]6C[C@H]5CN6)nc(OC[C@@]56CCCN5C[C@H](F)C6)nc4c3F)c12` [Compound 44], for which the IC50 in series [1] was determined as 15.2 nM; in series [2], 29.6 nM.
For `C#Cc1c(F)ccc2cc(O)cc(-c3nc(C#C)c4c(N5CC6CC(C5)N6)nc(OC[C@@]56CCCN5C[C@H](F)C6)nc4c3F)c12` [Compound 41], the results for the IC50 in series [1] and in series [2] were 22 nM and 31.4 nM, respectively.
For the compound `C#Cc1c(F)ccc2cc(O)cc(-c3nc(C#C)c4c(N5CCN[C@@H](C)C5)nc(OC[C@@]56CCCN5C[C@H](F)C6)nc4c3F)c12` [Compound 43], the IC50 in series [1] worked out at 16.3 nM; in series [2], 24.1 nM.
Turning to `C#Cc1c(F)ccc2cc(O)cc(-c3nc(C#CCOC)c4c(N5CC6CCC(C5)N6)nc(OC[C@@]56CCCN5C[C@H](F)C6)nc4c3F)c12` [Compound 25], the IC50 in series [1] amounted to 15 nM; in series [2] it was 16.8 nM; in series [3] (AGS, 3 h), 0.8 nM.
Turning to `C#Cc1c(F)ccc2cc(O)cc(-c3nc(OCCOC)c4c(N5CC6CCC(C5)N6)nc(OC[C@@]56CCCN5C[C@H](F)C6)nc4c3F)c12` [Compound 10], the IC50 in series [1] is 8.7 nM; in series [2] it was 13.9 nM.
For `C#Cc1c(F)ccc2cc(O)cc(-c3nc(C#CCCC#N)c4c(N5CC6CCC(C5)N6)nc(OC[C@@]56CCCN5C[C@H](F)C6)nc4c3F)c12` [Compound 31], in that order: 24.6 nM and 34.6 nM.
Regarding `C#Cc1c(F)ccc2cc(O)cc(-c3nc(C#C)c4c(N5CC6CCC(C5)N6)nc(OCC5(CN(C)C)CC5)nc4c3F)c12` [Compound 52], the IC50 turned out to be 7.7 nM in series [1], 15.2 nM in series [2] and 1.5 nM in series [3] (setting [6]).
On to `C#Cc1c(F)ccc2cccc(-c3nc(C#C)c4c(N5CC6CCC(C5)N6)nc(OC[C@@]56CCCN5C[C@H](F)C6)nc4c3F)c12` [Compound 84], for which the IC50 was 20.8 nM in series [1] and 29.6 nM in series [2].
Turning to `C#Cc1nc(-c2cc(O)cc(Cl)c2C2CC2)c(F)c2nc(OC[C@@]34CCCN3C[C@H](F)C4)nc(N3CC4CCC(C3)N4)c12` [Compound 78], the figures for the IC50 in series [1] and in series [2] were 7.5 nM and 17.3 nM, respectively.
Regarding `C#Cc1c(F)ccc2cc(O)cc(-c3nc(C#CCC(C)C)c4c(N5CC6CCC(C5)N6)nc(OC[C@@]56CCCN5C[C@H](F)C6)nc4c3F)c12` [Compound 29], the IC50 stood at 14.7 nM in series [1], 15.9 nM in series [2] and 1 nM in series [3] (setting [6]).
